Test results taken from US20210292330A1, “PYRROLIDINE-FUSED HETEROCYCLES” (Erasca, Inc., priority 2020, published 2021).

Target: T1, KRAS 4B G12C protein (Homo sapiens, UniProt P01116, G12C)
T1 construct: This protein contained 188 amino acids in total, including an N-terminal 6-Histidine tag; made in house; host or cells: E. coli BL21
Experiment: In vitro covalent adduct formation (CAF) assay by LC-MS
Assay type: binding
Settings: compound 10 μM, protein 5 μM, 22° C., percentage of protein bound by the compound
Description: In vitro covalent adduct formation assay: Covalent adduct formation (CAF) reactions between Cys12 of the KRAS 4B G12C protein and some of the compounds of Table 1 were measured in vitro using liquid chromatography-mass spectrometry (LC-MS).
Recombinant Human KRAS 4B protein containing the G12C mutation was used in compound screening experiments. This protein contained 188 amino acids in total, including an N-terminal 6-Histidine tag, followed by a Tobacco Etch Virus (TEV) tag, followed by residues 1-169 of the native KRAS 4B sequence. The exact mass of the protein was 21,310 Da as determined by mass spectrometry. The full amino acid sequence is shown below:
The recombinant protein was expressed in E. coli BL21 cells and purified using affinity chromatography via a Ni-NTA column. […] Pure KRAS 4B G12C protein was diluted to a concentration of 5 μM in Tris Buffered Saline, pH 7.4. The compounds were dissolved in DMSO and added to the diluted protein to make a 10 μM concentration. The total DMSO concentration in the reaction was 4%. The reaction was mixed by pipetting and incubated at 22° C. for one hour. Aliquots of the reaction were taken over time and diluted 2:1 in 0.1% formic acid. The intact mass of the protein samples was measured by LC-MS using a QExactive+ mass spectrometer (Thermo Scientific). An amount of 500 ng total protein was injected onto a C8 reverse phase column, eluted with a seven-minute gradient of 30%-90% acetonitrile/0.1% formic acid, and analyzed for intact mass by the mass spectrometer. Adducts identified were confirmed to be within 1 Dalton of the expected mass, and the relative ratios of free:adduct protein were used to quantify the percentage of protein bound by the compound. CAF reactions were run in duplicate, with a typical variability of ±5%.

Row | SMILES | CAF (10 minutes/60 minutes) at 10 micromolar: 10 minutes | CAF (10 minutes/60 minutes) at 10 micromolar: 60 minutes
1 | C=CC(=O)N1CCN(c2nc(OC[C@@H]3CCCN3C)nc3c2CN(Cc2c(Cl)cccc2OC)C3)C[C@@H]1CCO [1-92] | 0%/ 0% | 0%/ 0%
2 | C=CC(=O)N1CCN(c2nc(OC)nc3c2CN(Cc2cc(F)ccc2Cl)C3)C[C@@H]1CC#N [1-76] | 0% | 7%
3 | C=CC(=O)N1CCN(c2nc(OC[C@@H]3CCCN3C)nc3c2CN(Cc2cc(O)ccc2Cl)C3)C[C@@H]1CC#N [1-26, 2-((S)-1-acryloyl-4-(6-(2-chloro-5-hydroxybenzyl)-2-(((S)-1-methylpyrrolidin-2-yl)methoxy)-6,7-dihydro-5H-pyrrolo[3,4-d]pyrimidin-4-yl)piperazin-2-yl)acetonitrile] | 74%/ 74% | 74%/ 74%
4 | C=CC(=O)N1CCN(c2nc(OC[C@@H]3CCCN3C)nc3c2CN(Cc2cc(F)ccc2Cl)C3)[C@@H](C)C1 [1-34] | 0% | 14%
5 | C=CC(=O)N1CC2COCC(C1)N2c1nc(OC[C@@H]2CCCN2C)nc2c1CN(Cc1cc(O)ccc1Cl)C2 [1-90] | 2% | 12%
6 | C=CC(=O)N1CCN(c2nc(OC[C@@H]3CCCN3C)nc3c2CN(Cc2cc(F)ccc2C(C)C)C3)C[C@@H]1CC#N [1-172] | 68% | 73%
7 | C=CC(=O)N1CCN(c2nc(OC[C@@H]3CCCN3C)nc3c2CN(C2CCc4ccccc42)C3)[C@@H](C#N)C1 (some centres unmarked) [1-150] | 21% | 31%
8 | C=CC(=O)N1CCN(c2nc(OC[C@@H]3CCCN3C)nc3c2CN(Cc2c(Cl)ccc4c2CCCO4)C3)C[C@@H]1CC#N [1-158] | 49% | 89%

Further lines, results first:

Row | CAF (10 minutes/60 minutes) at 10 micromolar: 10 minutes | CAF (10 minutes/60 minutes) at 10 micromolar: 60 minutes | SMILES
9 | 24% | 52% | C=CC(=O)N1CCN(c2nc(-c3nnc(C)o3)nc3c2CN(C2CCc4ccccc42)C3)C[C@@H]1CC#N (stereo partly drawn) [1-197, 2-((2S)-1-acryloyl-4-(6-(2,3-dihydro-1H-inden-1-yl)-2-(5-methyl-1,3,4-oxadiazol-2-yl)-6,7-dihydro-5H-pyrrolo[3,4-d]pyrimidin-4-yl)piperazin-2-yl)acetonitrile]
10 | 0% | 7% | C=C(F)C(=O)N1CCN(c2nc(OC[C@@H]3CCCN3C)nc3c2CN(Cc2cc(NC)ncc2Cl)C3)C[C@@H]1CC#N [1-340]
11 | 52% | 86% | C=CC(=O)N1CCN(c2nc(OC[C@@H]3CCCN3C)nc3c2CN(Cc2cc(O)c(Cl)cc2Cl)C3)C[C@@H]1CC#N [1-330]
12 | 0% | 3% | C=C(F)C(=O)N1CCN(c2nc(OC[C@@H]3CCCN3C)nc3c2CN(Cc2c(C)cc(C)c(O)c2C)C3)C[C@@H]1CC#N [1-325]
13 | 0%/ 0% | 0%/ 0% | C=CC(=O)N1CCN(c2nc(OC[C@@H]3CCCN3C)nc3c2CN(C2CCc4ccccc42)C3)C2CS(=O)(=O)CC21 (some centres unmarked) [1-210]
14 | 46% | 84% | C=CC(=O)N1CCN(c2nc(OC[C@@H]3CCCN3C)nc3c2CN(Cc2cccc4ocnc24)C3)C[C@@H]1CC#N [1-204]
15 | 0% | 7% | C=CC(=O)N1CCN(c2nc(OC[C@@H]3CCCN3C)nc3c2CN(C2CCc4ccccc42)C3)C[C@@H]1Cn1nccn1 (some centres unmarked) [1-215]
16 | 79% | 86% | C=C(F)C(=O)N1CCN(c2nc(OC[C@@H]3CCCN3C)nc3c2CN(Cc2nc(N)cc(C)c2C(F)(F)F)C3)C[C@@H]1CC#N [1-334]
